Key:
[1] = system: hPBMCs (Human Peripheral Blood Mononuclear Cells); test: Induction of interferon-α in hPBMCs in vitro; type: cell-based
How it was run: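 Peripheral blood mononuclear cells from healthy human donors were dispensed into replicate culture wells at 1.0-7.5×10^6 cells per well. They were exposed to test compound for 24 hours at 37° C. in humidified 5% CO2, with untreated wells as controls. Secreted interferon-α was quantified with a multisubtype ELISA or as IFNα2a in a luminex panel. MEC was defined as the lowest concentration giving a significant rise above baseline, generally at least 80 pg/ml. IFNmax was the highest IFN level seen at any tested concentration.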

[2] = target: T1, human TLR7 (Homo sapiens, UniProt Q9NYK1); test: TLR7 reporter cell assay (HEK293 cells stably expressing human TLR7 with NF-κB-driven SEAP reporter); type: cell-based; settings: 15-24 hours
T1 construct: host or cells: HEK293
T1 sequence (Q9NYK1 27-1049): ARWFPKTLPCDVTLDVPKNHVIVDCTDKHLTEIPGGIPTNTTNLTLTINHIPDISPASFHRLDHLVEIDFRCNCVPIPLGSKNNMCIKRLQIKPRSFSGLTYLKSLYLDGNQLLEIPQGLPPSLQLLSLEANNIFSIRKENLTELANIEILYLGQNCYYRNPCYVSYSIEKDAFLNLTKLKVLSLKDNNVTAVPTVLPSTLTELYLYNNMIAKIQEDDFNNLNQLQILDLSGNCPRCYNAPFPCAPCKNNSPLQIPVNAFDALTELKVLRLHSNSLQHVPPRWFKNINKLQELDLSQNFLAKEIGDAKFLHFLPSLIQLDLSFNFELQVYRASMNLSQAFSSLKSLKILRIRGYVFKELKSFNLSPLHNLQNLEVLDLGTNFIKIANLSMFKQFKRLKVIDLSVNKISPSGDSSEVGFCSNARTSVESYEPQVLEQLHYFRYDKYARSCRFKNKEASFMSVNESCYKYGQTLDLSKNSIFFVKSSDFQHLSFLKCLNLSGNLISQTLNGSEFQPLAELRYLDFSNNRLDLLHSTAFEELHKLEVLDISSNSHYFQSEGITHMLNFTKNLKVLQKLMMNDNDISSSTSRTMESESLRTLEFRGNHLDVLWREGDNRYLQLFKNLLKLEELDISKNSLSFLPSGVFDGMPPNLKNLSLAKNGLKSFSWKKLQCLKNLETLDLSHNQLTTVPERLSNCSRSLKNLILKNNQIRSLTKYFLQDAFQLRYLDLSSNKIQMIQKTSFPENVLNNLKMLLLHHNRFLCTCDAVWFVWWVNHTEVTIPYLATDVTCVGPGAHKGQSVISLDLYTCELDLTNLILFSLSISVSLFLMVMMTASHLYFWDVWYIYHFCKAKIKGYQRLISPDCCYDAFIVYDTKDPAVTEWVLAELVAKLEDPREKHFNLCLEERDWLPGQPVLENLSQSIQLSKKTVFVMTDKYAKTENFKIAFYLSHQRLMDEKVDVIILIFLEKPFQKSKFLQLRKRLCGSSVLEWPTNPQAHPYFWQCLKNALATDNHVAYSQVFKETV
How it was run: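 HEK293 cells stably expressing human TLR7 with an NF-κB-driven SEAP reporter, treated with compound for 15-24 hours. SEAP read at OD 650 nm. EC50 fitted by nonlinear least squares, maximum set by 28.5 μM resiquimod.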

- Emax at 500 µM ([2]; HEK293, 500 μM compound, SEAP activity (OD 650 nm) relative to 28.5 μM resiquimod, read-out: Response at 500 μM Compound as a Percent of Resiquimod Response): 74%
- EC50 ([2]; fit of SEAP dose response, ymax from 28.5 μM resiquimod): 51 µM
Compound: CC[C@H](O)[C@@H]1C[C@@H](O)[C@H](n2c(=O)sc3c(=O)[nH]c(N)nc32)O1 [Compound A, 5-amino-3-((2R,3R,5S)-3-hydroxy-5-((S)-1-hydroxypropyl)tetrahydrofuran-2-yl)thiazolo[4,5-d]pyrimidine-2,7(3H,6H)-dione, reference compound]
- Donor 1 MEC ([1]; Donor 1, interferon-α production): ≤3.125 µM
- Donor 1 IFNmax ([1]; Donor 1, maximum IFN at any concentration of the evaluated range): 1061 pg/mL
- Donor 2 MEC ([1]; Donor 2, interferon-α production): ≤3.125 µM
- Donor 2 IFNmax ([1]; Donor 2, maximum IFN at any concentration of the evaluated range): 481 pg/mL
- Donor 3 MEC ([1]; Donor 3, interferon-α production): ≤3.125 µM
- Donor 3 IFNmax ([1]; Donor 3, maximum IFN at any concentration of the evaluated range): 2243 pg/mL
- Emax ([1]; Homo sapiens, PBMC, 24 h, peak IFNα2a as percentage of peak response of standard 2-Amino-7-(cyclopropylmethyl)-9-B-D-xylofuranosyl-7,9-dihydro-1H-purine-6,8-dione, averaged across donors, read-out: IFNrmax, Relative Maximal IFNα2a Production (%)): 103%
- minimal effective concentration ([1]; Homo sapiens, PBMC, minimal effective concentration for interferon-α production (generally at least 80 pg/ml above baseline), geometric mean across at least three donors, 24 hours, read-out: Weighted MEC): ≤ 3.1 µM

From patent US12187759B2, “TLR7 agonists” (Primmune Therapeutics, Inc., priority 2019, dated 2025)
